From patent US9809573B2, “Substituted pyridine derivatives useful as GSK-3 inhibitors” (priority 2013, dated 2017)
Like-named read-outs stand apart in the source and are kept apart here.

Columns and labels:
pTau = pTau assay (method not described); type: cell-based
GSK3α = GSK3α (Homo sapiens, UniProt P49840); assay: biochemical
Summary of the method: (§1)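 Readout: electrophoretic resolution of phosphorylated from unphosphorylated peptide on a LabChip3000. Reactions incubated 20 h at room temperature before termination with 35 mM EDTA. Eleven-concentration curves gave IC50 via non-linear regression.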

GSK3β = GSK3β (Homo sapiens, UniProt P49841); assay: GSK3β kinase assay (Caliper LabChip3000, fluoresceinated peptide substrate); type: biochemical
GSK3β, sequence (P49841 whole entry, species assumed): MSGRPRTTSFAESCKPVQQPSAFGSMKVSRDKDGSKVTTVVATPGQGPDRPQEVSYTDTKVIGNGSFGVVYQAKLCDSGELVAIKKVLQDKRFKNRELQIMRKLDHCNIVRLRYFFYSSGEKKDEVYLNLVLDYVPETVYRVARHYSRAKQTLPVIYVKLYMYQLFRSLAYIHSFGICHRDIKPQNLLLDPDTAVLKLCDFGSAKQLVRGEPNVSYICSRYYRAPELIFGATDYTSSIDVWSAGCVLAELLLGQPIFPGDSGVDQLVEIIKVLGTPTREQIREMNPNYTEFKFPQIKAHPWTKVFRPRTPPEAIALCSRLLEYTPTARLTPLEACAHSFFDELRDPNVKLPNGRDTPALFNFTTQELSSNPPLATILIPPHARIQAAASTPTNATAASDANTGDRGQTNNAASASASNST
Summary of the method: as §1

[1] = second value of the cell, 250 pM enzyme, 20 uM ATP, 20 hours at room temperature, read-out: GSK3β/α (nM): GSK3α IC50
[2] = first value of the cell, 250 pM enzyme, 20 uM ATP, 20 hours at room temperature, read-out: GSK3β/α (nM): GSK3β IC50

GSK3α, sequence (P49840 whole entry, species assumed): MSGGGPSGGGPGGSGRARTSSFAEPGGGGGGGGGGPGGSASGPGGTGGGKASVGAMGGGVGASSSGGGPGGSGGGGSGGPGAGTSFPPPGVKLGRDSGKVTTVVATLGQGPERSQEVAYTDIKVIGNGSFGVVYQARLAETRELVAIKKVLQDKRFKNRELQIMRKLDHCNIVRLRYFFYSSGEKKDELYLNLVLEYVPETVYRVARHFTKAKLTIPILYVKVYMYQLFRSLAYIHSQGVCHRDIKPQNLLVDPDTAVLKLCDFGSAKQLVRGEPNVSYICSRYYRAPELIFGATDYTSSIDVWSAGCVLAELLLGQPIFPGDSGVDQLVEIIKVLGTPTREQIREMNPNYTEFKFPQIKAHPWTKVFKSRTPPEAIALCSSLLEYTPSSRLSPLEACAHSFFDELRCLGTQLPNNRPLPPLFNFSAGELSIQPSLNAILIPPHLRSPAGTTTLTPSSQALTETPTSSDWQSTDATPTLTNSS

Row | SMILES | IC50 (pTau; read-out: pTau) | IC50 (GSK3α; [1]) | IC50 (GSK3β; [2]) | IC50 (GSK3β) | IC50 (pTau; read-out: pTau (nM)) | IC50 (GSK3α) | IC50 (GSK3α; read-out: GSK3β/α (nM): GSK3α IC50, second value of the cell, 250 pM enzyme, 20 uM ATP, 20 hours at room temperature) | IC50 (GSK3β; read-out: GSK3β/α (nM): GSK3β IC50, first value of the cell, 250 pM enzyme, 20 uM ATP, 20 hours at room temperature)
1 | O=C(Nc1cncc(-n2ccnc2)c1)c1ccnc(NC(=O)C2CC2)c1 [Example 119, N-(5-(1H-imidazol-1-yl)pyridin-3-yl)-2-(cyclopropanecarboxamido)isonicotinamide] | 410 nM | 1 nM | 2.4 nM |  |  |  |  | 
2 | O=C(Nc1cncc(-c2ccc(F)cc2)c1)c1ccnc(NC(=O)C2CC2)c1 [Example 111, 2-(cyclopropanecarboxamido)-N-(5-(4-fluorophenyl)pyridin-3-yl)isonicotinamide] | 570 nM | 0.95 nM |  | 6.4 nM |  |  |  | 
3 | O=C(Nc1cnccc1-c1ccc(C(F)(F)F)cc1F)c1ccnc(NC(=O)C2CC2)c1 [Example 82, 2-(Cyclopropanecarboxamido)-N-(4-(2-fluoro-4-(trifluoromethyl)phenyl)pyridine-3-yl)isonicotinamide] | 200 nM | 4 nM | 9.6 nM |  |  |  |  | 
4 | O=C(Nc1cncc(-c2ccc(Cl)cc2Cl)c1)c1ccnc(NC(=O)C2CC2)c1 [Example 148, 2-(cyclopropanecarboxamido)-N-(5-(2,4-dichlorophenyl)pyridin-3-yl)isonicotinami] | 620 nM | 2.4 nM | 9.7 nM |  |  |  |  | 
5 | O=C(Nc1cncc(-c2ccccc2)c1)c1ccnc(NC(=O)C2CC(F)(F)C2)c1 [Example 214, 2-(3,3-difluorocyclobutanecarboxamido)-N-(5-phenylpyridin-3-yl)isonicotinamide] | 490 nM | 2.9 nM |  | 4.1 nM |  |  |  | 
6 | Cc1c(NC(=O)c2ccnc(NC(=O)C3CC3)c2)cnn1C [Example 175, 2-(cyclopropanecarboxamido)-N-(1,5-dimethyl-1H-pyrazol-4-yl)isonicotinamide] | 3700 nM | 33 nM | 68 nM |  |  |  |  | 
7 | CC(C)(C)C(=O)Nc1cc(C(=O)Nc2cncc(-c3cccc(F)c3F)c2)ccn1 [Example 209, N-(5-(2,3-difluorophenyl)pyridin-3-yl)-2-pivalamidoisonicotinamide] | 2100 nM | 14 nM |  | 24 nM |  |  |  | 
8 | CN(C)Cc1ccccc1-c1cncc(NC(=O)c2ccnc(NC(=O)C3CC3)c2)c1 [Example 145, 2-(cyclopropanecarboxamido)-N-(5-(2-((dimethylamino)methyl)phenyl)pyridin-3-yl)isonicotinamide] | 1400 nM | 170 nM | 780 nM |  |  |  |  | 
9 | COc1cccc(-c2cncc(NC(=O)c3ccnc(NC(=O)C4CC4)c3)c2)n1 [Example 164, 2-(cyclopropanecarboxamido)-N-(6-methoxy-[2,3′-bipyridin]-5′-yl)isonicotinamide] | 270 nM | 1.4 nM | 6 nM |  |  |  |  | 
10 | CC(C)C(=O)Nc1cc(C(=O)Nc2cnccc2OCC2(C)CC2)ccn1 [Example 201, 2-isobutyramido-N-(4-((1-methylcyclopropyl)methoxy)pyridin-3-yl)isonicotinamide] | 26 nM | 0.4 nM | 1.1 nM |  |  |  |  | 
11 | O=C(Nc1c(N2CCOCC2)ccnc1F)c1ccnc(NC(=O)C2CC2)c1 [Example 88, 2-(Cyclopropanecarboxamido)-N-(2-fluoro-4-morpholinopyridin-3-yl)isonicotinamide] | 170 nM | 3.9 nM | 9.1 nM |  |  |  |  | 
12 | CC(O)c1ccncc1NC(=O)c1ccnc(NC(=O)C2CC2)c1 (stereo not drawn) [Example 17, 2-(Cyclopropanecarboxamido)-N-(4-(1-hydroxyethyl)pyridin-3-yl)isonicotinamide] | 35 nM | 1.4 nM |  | 0.25 nM |  |  |  | 
13 | CC(C)n1cc(NC(=O)c2ccnc(NC(=O)C3CC3)c2)cn1 [Example 171, 2-(cyclopropanecarboxamido)-N-(1-isopropyl-1H-pyrazol-4-yl)isonicotinamide] | 4000 nM | 170 nM | 370 nM |  |  |  |  | 
14 | CC(C)C(=O)Nc1cc(C(=O)Nc2cnccc2C(=O)c2ccccc2)ccn1 [Example 196, N-(4-benzoylpyridin-3-yl)-2-isobutyramidoisonicotinamide] | 520 nM | 5.9 nM | 13 nM |  |  |  |  | 
15 | O=C(Nc1cnccc1-c1cc(Br)cc(Br)c1)c1ccnc(NC(=O)C2CC2)c1 [Example 167, 2-(cyclopropanecarboxamido)-N-(4-(3,5-dibromophenyl)pyridin-3-yl)isonicotinamide] | 5500 nM | 9.3 nM | 20 nM |  |  |  |  | 
16 | C=C(c1ccccc1)c1ccncc1NC(=O)c1ccnc(NC(=O)C(C)C)c1 [Example 200, 2-Isobutyramido-N-(4-(1-phenylvinyl)pyridine-3-yl)isonicotinamide] | 510 nM | 4.7 nM | 6.1 nM |  |  |  |  | 

Row | SMILES | IC50 (pTau; read-out: pTau) | IC50 (GSK3α; [1]) | IC50 (GSK3β; [2]) | IC50 (GSK3β) | IC50 (pTau; read-out: pTau (nM)) | IC50 (GSK3α) | IC50 (GSK3α; read-out: GSK3β/α (nM): GSK3α IC50, second value of the cell, 250 pM enzyme, 20 uM ATP, 20 hours at room temperature) | IC50 (GSK3β; read-out: GSK3β/α (nM): GSK3β IC50, first value of the cell, 250 pM enzyme, 20 uM ATP, 20 hours at room temperature)
17 | O=C(Nc1cnccc1-c1ccc(C(F)(F)F)cc1Cl)c1ccnc(NC(=O)C2CC2)c1 [Example 70, N-(4-(2-chloro-4-(trifluoromethyl)phenyl)pyridin-3-yl)-2-(cyclopropanecarboxamido)isonicotinamide] | 280 nM | 4.5 nM | 7 nM |  |  |  |  | 
18 | O=C(Nc1cnccc1-c1ccccc1)c1ccnc(NC(=O)[C@H]2C[C@H](O)C2)c1 [Example 219, 2-((1,3-Trans)-3-hydroxycyclobutanecarboxamido)-N-(4-phenylpyridin-3-yl)isonicotinamide] | 450 nM | 6.4 nM | 17 nM |  |  |  |  | 
19 | O=C(Nc1cncc(-c2cccc(OC(F)F)c2)c1)c1ccnc(NC(=O)C2CC2)c1 [Example 157, 2-(cyclopropanecarboxamido)-N-(5-(3-(difluoromethoxy)phenyl)pyridin-3-yl)isonicotinamide] | 670 nM | 3.3 nM | 7.9 nM |  |  |  |  | 
20 | CCOc1ccncc1NC(=O)c1ccnc(NC(=O)C2CCCC2)c1 [Example 226, 2-(Cyclopentanecarboxamido)-N-(4-ethoxypyridin-3-yl)isonicotinamide] | 31 nM | 0.41 nM |  | 0.62 nM |  |  |  | 
21 | C[C@@H]1COCCN1c1ccncc1NC(=O)c1ccnc(NC(=O)C2CC2)c1 [Example 52, (R)-2-(cyclopropanecarboxamido)-N-(4-(3-methylmorpholino)pyridin-3-yl)isonicotinamide] | 12 nM | 0.21 nM |  | 0.49 nM |  |  |  | 
22 | O=C(Nc1cncc(-c2cccc(F)c2F)c1)c1ccnc(NC(=O)C2CCC(F)(F)C2)c1 (stereo not drawn) [Example 235, 2-(3,3-difluorocyclopentanecarboxamido)-N-(5-(2,3-difluorophenyl)pyridin-3-yl)isonicotinamide] |  |  |  | 1.4 nM | 130 nM | 0.6 nM |  | 
23 | NC(=O)c1cncc(NC(=O)c2ccnc(NC(=O)C3CC3)c2)c1 [Example 105, 5-(2-(cyclopropanecarboxamido)isonicotinamido)nicotinamide] | 6900 nM | 3.6 nM | 6.5 nM |  |  |  |  | 
24 | O=C(Nc1cncc(-c2ccccc2F)c1)c1ccnc(NC(=O)C2CC2)c1 [Example 116, 2-(cyclopropanecarboxamido)-N-(5-(2-fluorophenyl)pyridin-3-yl)isonicotinamide] |  |  |  | 0.35 nM | 180 nM | 0.28 nM |  | 
25 | CC(C)C(=O)Nc1cc(C(=O)Nc2cnccc2OCCC(C)(C)O)ccn1 [Example 190, N-(4-(3-hydroxy-3-methylbutoxy)pyridin-3-yl)-2-isobutyramidoisonicotinamide] |  |  |  | 3.3 nM | 19 nM | 1.4 nM |  | 
26 | CC1CC1C(=O)Nc1cc(C(=O)Nc2cnccc2-c2ccccc2)ccn1 (stereo not drawn) [Example 100, 2-(2-Methylcyclopropanecarboxamido)-N-(4-phenylpyridin-3-yl)isonicotinamide] | 350 nM | 7.5 nM | 26 nM |  |  |  |  | 
27 | O=C(Nc1cnccc1-c1ccc(Cl)cc1)c1ccnc(NC(=O)C2CC(F)C2)c1 (single isomer, unassigned) [Example 223, N-(4-(4-chlorophenyl)pyridin-3-yl)-2-((1,3-cis)-3-fluorocyclobutanecarboxamido)isonicotinamide] | 150 nM |  |  |  |  |  | 3.1 nM | 6.9 nM
28 | N#Cc1ccc(-c2cncc(NC(=O)c3ccnc(NC(=O)C4CC4)c3)c2)cc1 [Example 115, N-(5-(4-cyanophenyl)pyridin-3-yl)-2-(cyclopropanecarboxamido)isonicotinamide] | 780 nM | 4.3 nM | 4.1 nM |  |  |  |  | 
29 | Cc1cc(NC(=O)c2ccnc(NC(=O)C3CC3)c2)cnc1F [Example 8, 2-(Cyclopropanecarboxamido)-N-(6-fluoro-5-methylpyridin-3-yl)isonicotinamide] | 1800 nM | 24 nM | 48 nM |  |  |  |  | 
30 | O=C(Nc1cnccc1N1CCC(F)(F)CC1)c1ccnc(NC(=O)C2CC2)c1 [Example 45, 2-(Cyclopropanecarboxamido)-N-(4-(4,4-difluoropiperidin-1-yl)pyridin-3-yl)isonicotinamide] |  |  |  | 0.22 nM | 5.1 nM | 0.19 nM |  | 
31 | O=C(Nc1cnccc1-c1cc(Cl)ccc1F)c1ccnc(NC(=O)C2CC2)c1 [Example 86, 2-(Cyclopropanecarboxamido)-N-(4-(2-fluoro-5-chloro-phenyl)pyridin-3-yl)isonicotinamide] | 630 nM | 26 nM | 54 nM |  |  |  |  | 
32 | O=C(Nc1cnccc1-c1ccccc1)c1ccnc(NC(=O)C2CCCC2)c1 [Example 227, 2-(Cyclopentanecarboxamido)-N-(4-phenylpyridin-3-yl)isonicotinamide] |  |  |  | 1.6 nM | 47 nM | 1.4 nM |  | 
